# Patent US9174992B2, “Heterobicyclic compounds” (Amgen Inc., priority 2012, dated 2015)
# Molecular target: PDE10A (UniProt Q9Y233)
# Assay: PDE10 enzyme inhibition, IMAP TR-FRET assay (Example A, MPDE10A7 Enzyme Activity and Inhibition)
# Format: biochemical
# Conditions: approximate IC50 value, Table 10
# Method: Enzyme Activity. An IMAP TR-FRET assay was used to analyze the enzyme activity (Molecular Devices Corp., Sunnyvale Calif.). 10 μL of serial diluted PDE10A (BPS Bioscience, San Diego, Calif.) or tissue homogenate was incubated with equal volumes of diluted fluorescein labeled cAMP or cGMP for 90 min in 384-well Polypropylene assay plates (Greiner, Monroe, N.C.) at room temperature. After incubation, the reaction was stopped by adding 55 μL of diluted binding reagents and was incubated for 4 hours to overnight at room temperature. The plates were read on an Envision (Perkin Elmer, Waltham, Mass.) for time resolved fluorescence resonance energy transfer. The data were analyzed with Genedata Screener® (Lexington, Mass.).
# Enzyme Inhibition. To check the inhibition profile, 0.2 μL of serial diluted compounds were incubated with 10 μL of diluted PDE10 enzyme (BPS Bioscience, San Diego, Calif.) or tissue homogenate in a 384-well Polypropylene assay plate (Greiner, Monroe, N.C.) for 60 min at room temperature. After incubation, 10 μL of diluted fluorescein labeled cAMP or cGMP substrate were added and incubated for 90 min at room temperature. The reaction was stopped by adding 55 μL of diluted binding reagents and plates were read on an Envision (Perkin Elmer, Waltham, Mass.) for time resolved fluorescence resonance energy transfer. The data were analyzed with Genedata Screener® (Lexington, Mass.).
# IC50 curves were generated from the raw data collected from the […] and fitted with a four-parameter logistic equation using in-house data analysis tool, Activity Base.
row,Structure (SMILES),IC50 [nM]
1,"CNC(=O)c1ccc(N[C@H]2C[C@H](N3C(=O)C(C)(C)c4cccnc43)C2)nc1 [Example 29, 6-((trans-3-(3,3-dimethyl-2-oxo-2,3-dihydro-1H-pyrrolo[2,3-b]pyridin-1-yl)cyclobutyl)amino)-N-methylnicotinamide]",76.7
2,"CC1(C)C(=O)N([C@H]2C[C@H](Nc3nc4ccccc4s3)C2)c2ncccc21 [Example 30, 1-(trans-3-(benzo[d]thiazol-2-ylamino)cyclobutyl)-3,3-dimethyl-1H-pyrrolo[2,3-b]pyridin-2(3H)-one]",0.0125
3,"O=C1N([C@H]2C[C@H](Nc3nc4ccccc4s3)C2)c2ncccc2C12CC2 [Example 31, 1′-(Trans-3-(benzo[d]thiazol-2-ylamino)cyclobutyl)spiro[cyclopropane-1,3′-pyrrolo[2,3-b]pyridin]-2′(1′H)-one]",0.0151
4,"CC1(C)C(=O)N([C@H]2C[C@H](Nc3nc4ccc(F)cc4s3)C2)c2ncccc21 [Example 32, 1-(trans-3-((6-fluorobenzo[d]thiazol-2-yl)amino)cyclobutyl)-3,3-dimethyl-1H-pyrrolo[2,3-b]pyridin-2(3H)-one]",0.0402
5,"O=C1N([C@H]2C[C@H](Nc3nc4ccccc4s3)C2)c2ncc(F)cc2C12CC2 [Example 33, 1′-(trans-3-(1,3-benzothiazol-2-ylamino)cyclobutyl)-5′-fluorospiro[cyclopropane-1,3′-pyrrolo[2,3-b]pyridin]-2′(1′H)-one]",0.0768
6,"CC1(C)C(=O)N([C@H]2C[C@H](Nc3nc4ccccc4s3)C2)c2nccnc21 [Example 34, 5-(trans-3-(benzo[d]thiazol-2-ylamino)cyclobutyl)-7,7-dimethyl-5H-pyrrolo[2,3-b]pyrazin-6(7H)-one]",0.107
7,"O=C1N([C@H]2C[C@H](Nc3nc4ccccc4s3)C2)c2ncccc2C12CCC2 [Example 35, 1′-(trans-3-(benzo[d]thiazol-2-ylamino)cyclobutyl)spiro[cyclobutane-1,3′-pyrrolo[2,3-b]pyridin]-2′(1′H)-one]",0.115
8,"O=C1N([C@H]2C[C@H](Nc3nc4ccccc4s3)C2)c2ncccc2C12CCCC2 [Example 36, 1′-(Trans-3-(benzo[d]thiazol-2-ylamino)cyclobutyl)spiro[cyclopentane-1,3′-pyrrolo[2,3-b]pyridin]-2′(1′H)-one]",0.134
9,"O=C1N([C@H]2C[C@H](Nc3nc4ccccc4s3)C2)c2ncccc2C12CCOCC2 [Example 37, 1′-(Trans-3-(benzo[d]thiazol-2-ylamino)cyclobutyl)-2,3,5,6-tetrahydrospiro[pyran-4,3′-pyrrolo[2,3-b]pyridin]-2′(1′H)-one]",0.14
10,"Cc1ccc(N[C@H]2C[C@H](N3C(=O)C(C)(C)c4cccnc43)C2)nc1 [Example 38, 3,3-Dimethyl-1-(trans-3-(5-methylpyridin-2-yl)amino)cyclobutyl-1H-pyrrolo[2,3-b]pyridin-2(3H)-one]",0.166
11,COc1ccc(N[C@H]2C[C@H](N3C(=O)C(C)(C)c4cccnc43)C2)nc1 [Example 39],0.212
12,"CC1(C)C(=O)N([C@H]2C[C@H](Nc3ccc(Br)cn3)C2)c2ncccc21 [Example 40, 1-(Trans-3-((5-bromopyridin-2-yl)amino)cyclobutyl)-3,3-dimethyl-1H-pyrrolo[2,3-b]pyridin-2(3H)-one]",0.263
13,"CC1(C)C(=O)N([C@H]2C[C@H](Nc3ccc(C4CC4)cn3)C2)c2ncccc21 [Example 41, 1-(Trans-3-((5-cyclopropylpyridin-2yl)amino)cyclobutyl)-3,3-dimethyl-1H-pyrrolo[2,3-b]pyridin-2(3H)-one]",0.329
14,"CC1(C)C(=O)N([C@H]2C[C@H](Nc3ccc(Cl)cn3)C2)c2ncccc21 [Example 42, 1-(Trans-3-((5-chloropyridin-2-yl)amino)cyclobutyl)-3,3-dimethyl-1H-pyrrolo[2,3-b]pyridin-2(3H)-one]",0.856
15,"CC(=O)c1ccc(N[C@H]2C[C@H](N3C(=O)C(C)(C)c4cccnc43)C2)nc1 [Example 43, 1-(trans-3-((5-acetylpyridin-2-yl)amino)cyclobutyl)-3,3-dimethyl-1H-pyrrolo[2,3-b]pyridin-2(3H)-one]",1.57

# More lines, now with the values ahead:
row,IC50 [nM],Structure (SMILES)
1,2.44,"O=C1Cc2cccnc2N1[C@H]1C[C@H](Nc2nc3ccccc3s2)C1 [Example 44, 1-(trans-3-(benzo[d]thiazol-2-ylamino)cyclobutyl)-1H-pyrrolo[2,3-b]pyridin-2(3H)-one]"
2,2.52,"COc1cccnc1N[C@H]1C[C@H](N2C(=O)C(C)(C)c3cccnc32)C1 [Example 45, 1-(Trans-3-((3-methoxypyridin-2-yl)amino)cyclobutyl)-3,3-dimethyl-1H-pyrrolo[2,3-b]pyridin-2(3H)-one]"
3,2.53,"CC1(C)C(=O)N([C@H]2C[C@H](Nc3ccc(C(F)(F)F)cn3)C2)c2ncccc21 [Example 46, 1-(Trans-3-((5-trifuoromethylpyridin-2-yl)amino)cyclobutyl)-3,3-dimethyl-1H-pyrrolo[2,3-b]pyridin-2(3H)-one]"
4,2.64,"CCc1cnc(N[C@H]2C[C@H](N3C(=O)C(C)(C)c4cccnc43)C2)nc1 [Example 47, 1-(trans-3-((5-ethylpyrimidin-2-yl)amino)cyclobutyl)-3,3-dimethyl-1H-pyrrolo[2,3-b]pyridin-2(3H)-one]"
5,3.46,"Cc1cnc(N[C@H]2C[C@H](N3C(=O)C(C)(C)c4cccnc43)C2)nc1 [Example 48, 1-(trans-3-((5-methylpyrimidin-2-yl)amino)cyclobutyl)-3,3-dimethyl-1H-pyrrolo[2,3-b]pyridin-2(3H)-one]"
6,3.88,CC1(C)C(=O)N([C@H]2C[C@H](Nc3ccc(Cl)cn3)C2)c2nccnc21 [Example 49]
7,4.63,"COc1ccc(N(c2ccc(OC)cn2)[C@H]2C[C@H](N3C(=O)C(C)(C)c4cccnc43)C2)nc1 [Example 50, 1-(trans-3-(BIS(5-methoxypyridin-2-yl)amino)cyclobutyl)-3,3-dimethyl-1H-pyrrolo[2,3-b]pyridin-2(3H)-one]"
8,4.85,"Cc1ccnc(N[C@H]2C[C@H](N3C(=O)C(C)(C)c4cccnc43)C2)c1 [Example 51, 1-(Trans-3-((4-methylpyridin-2-yl)amino)cyclobutyl)-3,3-dimethyl-1H-pyrrolo[2,3-b]pyridin-2(3H)-one]"
9,5.69,"CC1(C)C(=O)N([C@H]2C[C@H](Nc3ncccc3F)C2)c2ncccc21 [Example 52, 1-(Trans-3-((3-fluoropyridin-2-yl)amino)cyclobutyl)-3,3-dimethyl-1H-pyrrolo[2,3-b]pyridin-2(3H)-one]"
10,5.7,"Cc1cccnc1N[C@H]1C[C@H](N2C(=O)C(C)(C)c3cccnc32)C1 [Example 53, 1-(Trans-3-((3-methylpyridin-2-yl)amino)cyclobutyl)-3,3-dimethyl-1H-pyrrolo[2,3-b]pyridin-2(3H)-one]"
11,6.47,"CC1(C)C(=O)N([C@H]2C[C@H](Nc3ccc(F)cn3)C2)c2ncccc21 [Example 54, 1-(Trans-3-((5-fluoropyridin-2-yl)amino)cyclobutyl)-3,3-dimethyl-1H-pyrrolo[2,3-b]pyridin-2(3H)-one]"
12,7.43,"CC1(C)C(=O)N([C@H]2C[C@H](Nc3nccs3)C2)c2ncccc21 [Example 55, 3,3-Dimethyl-1-(trans-3-(thiazol-2-ylamino)cyclobutyl)-1H-pyrrolo[2,3-b]pyridine-2(3H)-one]"
13,8.42,"CC(=O)Nc1ccc(N[C@H]2C[C@H](N3C(=O)C(C)(C)c4cccnc43)C2)nc1 [Example 56, N-(6-((Trans-3-(3,3-dimethyl-2-oxo-2,3-dihydro-1H-pyrrolo[2,3-b]pyridine-1-yl)cyclobutyl)amino)pyridine-3-yl)acetamide]"
14,11,CC1(C)C(=O)N([C@H]2C[C@H](Nc3ncccc3Cl)C2)c2ncccc21 [Example 57]
15,13,"COc1ccnc(N[C@H]2C[C@H](N3C(=O)C(C)(C)c4cccnc43)C2)n1 [Example 58, 1-(trans-3-((4-methoxypyrimidin-2-yl)amino)cyclobutyl)-3,3-dimethyl-1H-pyrrolo[2,3-b]pyridin-2(3H)-one]"
16,15.9,"CC1(C)C(=O)N([C@H]2C[C@H](Nc3ccc(C#N)cn3)C2)c2ncccc21 [Example 59, 1-(Trans-3-((5-cyanopyridin-2-yl)amino)cyclobutyl)-3,3-dimethyl-1H-pyrrolo[2,3-b]pyridin-2(3H)-one]"
17,19.3,"CC1(C)C(=O)N([C@H]2C[C@H](Nc3ncc(Br)cn3)C2)c2ncccc21 [Example 60, 1-(Trans-3-((5-bromopyrimidin-2-yl)amino)cyclobutyl)-3,3-dimethyl-1H-pyrrolo[2,3-b]pyridin-2(3H)-one]"
18,30.4,"CC1(C)C(=O)N([C@H]2C[C@H](Nc3ncc(Cl)cn3)C2)c2ncccc21 [Example 61, 1-(trans-3-((5-chloropyrimidin-2-yl)amino)cyclobutyl)-3,3-dimethyl-1H-pyrrolo[2,3-b]pyridin-2(3H)-one]"
19,38.6,"Cc1ccnc(N[C@H]2C[C@H](N3C(=O)C(C)(C)c4cccnc43)C2)n1 [Example 63, 1-(trans-3-((4-methylpyrimidin-2-yl)amino)cyclobutyl)-3,3-dimethyl-1H-pyrrolo[2,3-b]pyridin-2(3H)-one]"
